Measurements reported in patent publication EP0998912B1, “Use of peracids for hand's disinfection or decontamination” (Bode Chemie GmbH & Co., priority 1998, dated 2000).

Tests used:
[1] = tested on: residente Hautflora; experiment: Surgical hand disinfection test, DGHM guidelines (01.01.1981, Versuch II-2); assay type: in vivo; settings: 5 gew.-%ige solution in demineralised water, hands kept moist 3 Minuten; standard n-Propanol 60 Vol.-% 5 Minuten
Source text: (§1) Mit dieser Lösung wurde der Test zur chirurgischen Händedesinfektion entsprechend den Richtlinien der DGHM (Stand: 01.01.1981, Versuch II-2) durchgeführt. Bei diesem Versuch werden die Hände durch Einreiben 3 Minuten feucht gehalten und gegen ein Standardalkohol (n-Propanol 60 Vol.-%) nach 5 Minuten getestet. Der Test gilt als bestanden, wenn die residente Hautflora durch das Testpräparat gleich oder stärker reduziert wird als durch den Standard.

[2] = tested on: transiente Flora (E. coli); experiment: Hygienic hand disinfection test, DGHM guidelines (01.01.1981, Versuch II-1); assay type: in vivo; settings: 1 bis 10 gewichts-%-ige purely aqueous solutions, 30 bis 60 Sekunden; compared with requirements for 60 Volumen-% Ethanol or Isopropanol
Experimental: Mit der Zubereitung aus Beispiel 2 wurde der Test zur hygienischen Händedesinfektion gemäß den Richtlinien der DGHM (Stand: 01.01.1981, Versuch II-1) durchgeführt. Bei diesem Versuch muß die transiente Flora (E. coli) in 30 Sekunden gleich oder stärker reduziert werden als mit einem Standardalkohol (Isopropanol 60 Vol.-%) in 1 Minute.

[3] = tested on: Bakterien; experiment: Comparative trials on germ reduction by aqueous MMPP solutions; settings: 0,1 bis 10 gewichts-%-ige aqueous solutions, about 30 Sekunden Einwirkzeit
[4] = Skin tolerance observed during the hand disinfection and decontamination tests; assay type: in vivo
Source text: as §1
Mit einer solchen Lösung, die 4 Gew.-% des Wirkstoffes MMPP enthält, wurde ein Test zur Händedekontamination nach DGHM (Stand: 08.07.1986, Versuch 11) durchgeführt. Bei diesem Verfahren wird die Fähigkeit getestet, die transiente Hautflora zu reduzieren. Der Test gilt als bestanden, wenn das Präparat innerhalb von 30 Sekunden eine E. coli-Kontamination um 3,5 logarithmische Stufen entsprechend 99,9684 % reduziert.
Mit diesen Pasten wurden entsprechend Beispiel 2 die Versuche zur Händedekontamination durchgeführt. Die Hände werden 30 Sekunden mit 1,5 ml der Pasten eingerieben und dann mit Wasser entsprechend der Vorschrift aufgeschäumt.
Mit der Zubereitung aus Beispiel 2 wurde der Test zur hygienischen Händedesinfektion gemäß den Richtlinien der DGHM (Stand: 01.01.1981, Versuch II-1) durchgeführt. […]

O=C(O)c1ccccc1C(=O)OO [MMPP, Magnesium-Monoperoxidophthalat]
Reduktion der residenten Hautflora gleich oder stärker als durch den Standard [1]: erfüllt diese Anforderungen | Keimreduktion bei der hygienischen Händedesinfektion [2]: vergleichbare Keimreduktion | Keimreduktion [3]: > 4 log-Stufen | Keimreduktion ([3]; equivalent of the log steps): > 99,99% | Hautverträglichkeit ([4]; 0,1 bis 10 gewichts-%-ige aqueous solutions, Vergleichsversuche): hervorragend hautverträglich | Hautunverträglichkeiten ([4]; Beispiel 1, 5 gew.-%ige MMPP-Lösung, surgical hand disinfection): keine Hautunverträglichkeiten
